From PubChem BioAssay (NCI)
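Tested at 5 concentrations; 48 h exposure; 96-well plates; endpoints linearly interpolated, else capped at highest concentration. GI50 is the concentration that inhibits growth by half. TGI: concentration producing complete growth inhibition.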

How the values were obtained:
Experiment in all cases: NCI anticancer screen, dose series, 48 h
HOP-62 NSCLC = system: HOP-62 NSCLC
KM12 colon = system: KM12 colon
NCI-H522 lung = system: NCI-H522 lung
SF-268 CNS = system: SF-268 CNS
SF-539 CNS = system: SF-539 CNS
SNB-78 CNS = system: SNB-78 CNS
CAKI-1 renal = system: CAKI-1 renal
MDA-MB-231 breast = system: MDA-MB-231 breast
NCI/ADR-RES ovarian = system: NCI/ADR-RES ovarian

Structure (SMILES)	TGI (HOP-62 NSCLC)	TGI (KM12 colon)	TGI (NCI-H522 lung)	TGI (SF-268 CNS)	TGI (SF-539 CNS)	TGI (SNB-78 CNS)	TGI (CAKI-1 renal)	GI50 (CAKI-1 renal)	GI50 (HOP-62 NSCLC)	GI50 (KM12 colon)	GI50 (MDA-MB-231 breast)	TGI (MDA-MB-231 breast)	GI50 (NCI-H522 lung)	GI50 (NCI/ADR-RES ovarian)	TGI (NCI/ADR-RES ovarian)	GI50 (SF-268 CNS)	GI50 (SF-539 CNS)
O=C(O)c1cnc2c(ccc3[nH]cccc32)c1=O	> 100 µM	> 100 µM	> 100 µM	> 100 µM	> 100 µM	> 100 µM	–	–	–	–	–	–	–	–	–	–	–
O=CCCn1[nH]c(=O)ccc1=O	–	–	–	> 100 µM	> 100 µM	> 100 µM	> 100 µM	–	–	–	–	–	–	–	–	–	–
COc1cc2c(/C=C3\C(=O)N(C)c4ccccc43)c[nH]c2cc1C	39.3 µM	> 100 µM	> 87.5 µM	> 43.9 µM	> 31.2 µM	–	51.3 µM	2.01 µM	2.23 µM	0.735 µM	2.05 µM	> 100 µM	8.82 µM	0.65 µM	23.3 µM	0.103 µM	4.2 µM
Cc1[nH]c2ccccc2c1CO	> 100 µM	19.4 µM	28.9 µM	22.9 µM	39.9 µM	–	42.2 µM	14.9 µM	28.1 µM	4.84 µM	18.1 µM	54.7 µM	12.8 µM	19.5 µM	60.3 µM	10.2 µM	18.8 µM
CN1CCN(C)C1c1ccc(C2N(C)CCN2C)cc1	> 100 µM	> 100 µM	> 100 µM	> 100 µM	> 100 µM	–	> 100 µM	> 100 µM	82.8 µM	46.5 µM	18.3 µM	96.1 µM	> 100 µM	90.1 µM	> 100 µM	39.8 µM	35.6 µM
COc1cc2c3c(n(CCCN=[N+]=[N-])c(=O)c2cc1OC)-c1ccc([N+](=O)[O-])cc1C3=O	> 100 µM	> 100 µM	> 100 µM	> 100 µM	> 100 µM	–	> 100 µM	> 100 µM	89.7 µM	> 100 µM	20.3 µM	> 100 µM	16.8 µM	80 µM	> 100 µM	33.4 µM	38.9 µM
O=C(Nc1ccc(Cl)c(C(F)(F)F)c1)Nc1ccc(-c2cccnc2)cc1N1CCC(CO)CC1	5.09 µM	6.44 µM	3.43 µM	8.21 µM	5.84 µM	–	16 µM	2.32 µM	2.02 µM	2.2 µM	1.92 µM	4.34 µM	1.73 µM	2.85 µM	9.11 µM	2.39 µM	2.29 µM
Nc1nc(Sc2ccc([N+](=O)[O-])c3nonc23)c2ncn(C3OC(CO)C(O)C3O)c2n1 (configuration not stated)	> 100 µM	> 64.1 µM	14.2 µM	21.3 µM	> 37.2 µM	–	> 100 µM	0.669 µM	0.531 µM	2.89 µM	0.549 µM	14.8 µM	0.64 µM	0.47 µM	> 73.2 µM	0.938 µM	0.738 µM
Cc1ccc(-c2cc(C(=O)Nc3ccc(S(=O)(=O)N4CCCCC4)cc3)[nH]n2)c(O)c1	> 100 µM	> 100 µM	> 100 µM	> 100 µM	> 100 µM	–	> 100 µM	> 100 µM	> 100 µM	> 100 µM	16.8 µM	> 100 µM	> 100 µM	> 100 µM	> 100 µM	> 100 µM	> 100 µM
